The assay has as its target Growth hormone secretagogue receptor type 1 (Homo sapiens) (UniProt Q92847). The experiment in a line: Displacement of [125I-His9]-ghrelin from human GRLN receptor by radioligand binding assay.

Usually Ki stands for the equilibrium dissociation constant of an inhibitor or competing ligand from its target.

Growth hormone secretagogue receptor type 1 (Homo sapiens), sequence (Q92847 whole entry, looked up): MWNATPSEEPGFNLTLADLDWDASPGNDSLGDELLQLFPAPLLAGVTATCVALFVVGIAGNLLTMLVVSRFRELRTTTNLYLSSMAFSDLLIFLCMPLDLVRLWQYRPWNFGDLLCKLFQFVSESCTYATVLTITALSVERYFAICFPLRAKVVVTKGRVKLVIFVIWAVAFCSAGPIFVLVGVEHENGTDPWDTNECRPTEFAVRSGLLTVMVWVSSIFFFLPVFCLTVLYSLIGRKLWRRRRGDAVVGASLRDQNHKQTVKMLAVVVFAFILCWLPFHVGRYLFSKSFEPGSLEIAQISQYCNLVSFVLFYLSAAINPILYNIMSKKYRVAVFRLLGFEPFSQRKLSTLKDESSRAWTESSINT

In the case of `CC[C@H](C)[C@@H]1NCCCCCCCNC(=O)[C@@H](Cc2ccccc2)NC(=O)[C@@H](C)N(C)C1=O`, the inhibitory constant (Ki) is > 10 µM.
Regarding `CN1CC(=O)N[C@H](Cc2ccccc2)C(=O)NCCCc2ccccc2OCCN[C@@H](CO)C1=O`, the inhibitory constant (Ki) was > 10 µM.
With `CN1CC(=O)N[C@H](Cc2ccccc2)C(=O)NCCCc2ccccc2OCCN[C@@H](CCC(=O)O)C1=O` the figure was > 10 µM; with `CCC[C@@H]1NCCOc2ccccc2CCCNC(=O)[C@@H](CO)NC(=O)CN(C)C1=O`, > 10 µM.
In the case of `CCC[C@@H]1NCCOc2ccccc2CCCNC(=O)[C@@H](CCC(=O)O)NC(=O)CN(C)C1=O`, the Ki was > 10 µM.
As for `CCC[C@@H]1NCCOc2ccccc2CCCNC(=O)[C@@H](CCCN)NC(=O)CN(C)C1=O`, the Ki was > 10 µM.
